Holding throughout (type): cell-based, murine
For experiment [1], the system named is parental ES cells. Description: Colony formation activity at low cell density in serum- and feeder-free conditions. The following applies: 200 cells per well (12 well-plate), colonies enumerated 7 days later (FIG. 5C). As to the method:
(§1) FIG. 5A-5C. Effect of MAPK inhibitors on ES cell self-renewal. (A) Phase contrast image of parental ES cells cultured for 8 days (left), Bcl-2 ES cells cultured for 14 days (middle), and parental ES cells cultured with PD98059 for 14 days (right) in serum- and feeder-free conditions. (B) Growth curve of Bcl-2 ES cells (square) and parental ES cells cultured with 12.5 μM of PD98059 (circle) in serum- and feeder-free conditions. (C) Colony formation activity of parental (p) ES cells cultured without (Non) or with PD98059, and Bcl-2 ES cells at low cell density. Cultures were initiated with 200 cells per well (12 well-plate) and colonies were enumerated 7 days later.
Cell culture. D3 ES cells (Doetschman et al. (1985) J. Embryol. Exp. Morphol. 87:27-45) were maintained as previously described (Yamane et al. (1997) Blood 90:3516-3523), and clones expressing human Bcl-2 were established by co-transfecting parental D3 ES cells with the human Bcl2-IRES-EGFP transgene under control of the CAG promoter, and a puromycin resistance gene cassette. Bcl-2 ES cell clones were selected and expanded in the presence of puromycin. For serum-free cultures, ES cells are maintained in X-VIVO 15 (Cambrex) supplemented with 2 mM GlutaMax-1 (Gibco), 0.1 mM 2-mercaptoethanol, 1,000 U/mL ESGRO (Chemicon International), 100 U/mL penicillin (Gibco), and […] streptomycin (Gibco) on gelatin-coated dishes. […]

For experiment [2], the system named is parental ES cell line (D3 ES cells). Description: Self-renewal, differentiation and growth of ES cells in serum- and feeder-free culture with LIF and MAP kinase inhibitors. As to the method: as §1
(§2) Cell culture. D3 ES cells (Doetschman et al. (1985) J. Embryol. Exp. Morphol. 87:27-45) were maintained as previously described (Yamane et al. (1997) Blood 90:3516-3523), and clones expressing human Bcl-2 were established by co-transfecting parental D3 ES cells with the human Bcl2-IRES-EGFP transgene under control of the CAG promoter, and a puromycin resistance gene cassette. Bcl-2 ES cell clones were selected and expanded in the presence of puromycin. For serum-free cultures, ES cells are maintained in X-VIVO 15 (Cambrex) supplemented with 2 mM GlutaMax-1 (Gibco), 0.1 mM 2-mercaptoethanol, 1,000 U/mL ESGRO (Chemicon International), 100 U/mL penicillin (Gibco), and […] streptomycin (Gibco) on gelatin-coated dishes. Alternatively, IMDM/F12 (1:1) (Gibco) supplemented with 2 mM GlutaMax-1, 0.1 mM 2-mercaptoethanol, 0.1% polyvinyl alcohol (Sigma), 1× Insulin-Transferin-Selenium-X (Gibco), 1,000 U/mL ESGRO, 100 U/mL penicillin, and […] streptomycin was used where indicated. Cells were dissociated with Cell Dissociation Buffer (Enzyme-Free, Hanks'-based, Gibco).
MAP kinase inhibitors. 1 μM SB203580 (Calbiochem) and 12.5 μM PD98059 (Calbiochem) were used as described (Qi et al. (2004) Proc. Natl. Acad. Sci USA 101, 6027-6032; Burdon et al. (1999) Dev. Biol. 210, 30-43).

Experiment [3] deals with parental cell line (D3 ES cells). Description: Viability of the parental cell line in serum- and feeder-free conditions with BMP. The following applies: addition of BMP.
Source text: as §2

For experiment [4], the system named is Bcl-2, Bcl-xL, Mcl-1, Bax. Description: Western blot analysis of Bcl-2 family members after BMP stimulation. Conditions: parental ES cells, serum- and feeder-free, treated with BMP4 for 6 hours (FIG. 4B). As to the method:
FIG. 4A-4B. Western blot analysis for Smad proteins and Bcl-2 family members. (A) Cell lysates of parental cells cultured in conventional conditions with serum [p(serum)], a Bcl-2 clone in serum and feeder-free conditions untreated (Bcl-2), or treated with BMP4 for 90 minutes (Bcl-2+BMP4) were analyzed for the presence of phospho-Smad1/5/8 by western blotting (upper panel). The same membrane was stripped and reprobed with anti-actin antibody (lower panel). The band denoted by an asterisk is a product of non-specific staining. (B) Western blot analysis of Bcl-2 family members was performed for parental ES cells in conventional conditions with serum (serum), and for parental ES cells in serum- and feeder-free conditions without (Non) or treated with BMP4 for 6 hours (BMP4).
Western blots. Cells were lysed in 50 mM Tris-Cl (pH7.5)/150 mM NaCl/1% Triton-X/1% protease inhibitor cocktail set III (Calbiochem)/1 mM EDTA/1 mM Na3Vo4/1 mM NaF and proteins were separated by SDS-PAGE under denaturing conditions and transferred to Immobilon-P membrane (Miilipore). After blocking with 5% milk, the membrane was incubated with primary antibodies against phospho-Smad1/5/8 (Cell Signaling Technology), actin (Sigma), Bcl-2 (Dako), Bcl-xL (BD Bioscience), Mcl-1 (ABGENT), or Bax (BD Bioscience), washed, and then incubated with HRP-conjugated secondary antibodies. […]
(A western blot detects proteins with antibodies after separation by electrophoresis.)

As to `COc1cccc(-c2cc(=O)c3ccccc3o2)c1N` [PD98059], the “colony formation at low cell density” value in experiment [1] is on record as “could never support the colony formation”. Besides, the “growth speed of parental cell line with inhibitor compared with Bcl-2 ES cells” value in experiment [2] (12.5 μM PD98059, serum- and feeder-free (FIG. 5B)) is on record as “somewhat faster”. The “differentiated cells which appeared during culture” value in experiment [2] (parental ES cell line, 12.5 μM PD98059, serum- and feeder-free, 14 days (FIG. 5A)) is on record as “dramatically reduced”. Also, the “continuous growth in serum- and feeder-free conditions in the presence of LIF without Bcl-2” value in experiment [2] (parental ES cells, 12.5 μM PD98059, crisis upon continued passaging (FIG. 5B)) is reported as “supported the continuous growth”.

Turning to `C[S+]([O-])c1ccc(-c2nc(-c3ccncc3)c(-c3ccc(F)cc3)[nH]2)cc1` (stereo not shown) [SB 203580], the “effect on self-renewal and differentiation of ES cells” value in experiment [2] (1 μM SB203580, serum- and feeder-free conditions) is “did not show any effect”.

B1: BMP: bone morphogenic protein; BMP4 used for stimulation of ES cells (protein, UniProt P12644 293-408, looked up)
Bone morphogenetic protein 4: SPKHHSQRARKKNKNCRRHSLYVDFSDVGWNDWIVAPPGYQAFYCHGDCPFPLADHLNSTNHAIVQTLVNSVNSSIPKACCVPTELSAISMLYLDEYDKVVLKNYQEMVVEGCGCR
With B1, the “viability of the parental cell line” value in experiment [3] is recorded as “did not improve viability”. Besides, in experiment [4], the “expression of Bcl-2, Bcl-xL, Mcl-1 anti-apoptotic proteins” value is “neither Bcl-2, Bcl-xL, or Mcl-1 anti-apoptotic proteins are up-regulated”.

Values taken from patent US7641897B2, “Feeder layer and serum independent embryonic stem cells” (The Board of Trustees of the Leland Stanford Junior …, priority 2004, dated 2010).
